Patent publication US20240239883A1, “METHODS OF TREATING HOMOLOGOUS RECOMBINATION DEFICIENT CANCER” (ASTRAZENECA AB, priority 2020, published 2024)
Several values for one entry are separate records, joined by “and”; a condition that tells them apart may be missing. Identical values can stand only once.

Assays:
[1] = test system: patients with newly diagnosed, FIGO stage III-IV, high-grade serous or endometrioid ovarian cancer, fallopian tube or primary peritoneal cancer; assay: PAOLA-1/ENGOT-ov25 phase III trial, first line maintenance: progression-free survival and other efficacy variables; type: in vivo, human
Protocol: Olaparib tablets orally 300 mg twice daily (bd) • 2. Placebo tablets orally 300 mg bd
Patients included in the study were female patients with newly diagnosed advanced (FIGO (International Federation of Gynaecology and Obstetrics) Stage IIIB, IIIC or IV) ovarian cancer, primary peritoneal cancer and/or fallopian tube cancer that was histologically confirmed as: (a) high-grade serous, or (b) high-grade endometrioid, or (c) other epithelial non mucinous ovarian cancer in a patient with gBRCA1 or 2 deleterious mutation.
Additionally, patents had completed first line platinum-taxane chemotherapy prior to randomization. Specifically, the platinum-taxane based regimen consisted of a minimum of 6 and a maximum of 9 treatment cycles; however, if platinum-based therapy was discontinued early as a result of non-haematological toxicity specifically related to the platinum regimen, (i.e., neurotoxicity, hypersensitivity, etc.), patients must have received a minimum of 4 cycles of the platinum regimen. Intravenous, intraperitoneal, or neoadjuvant platinum based chemotherapy was also allowed; for weekly therapy, 3 weeks was considered to be 1 cycle.
Prior to randomization, patients had no evidence of disease (NED) or had been in clinical complete response (CR) or in partial response (PR) following first line treatment. There should have been no clinical evidence of disease progression (physical exam, imaging, or cancer antigen-125 (CA-125)) throughout the first line treatment and prior to study randomization.
Finally, patients were randomized at least 3 weeks and no more than 9 weeks after their last dose of chemotherapy (last dose is the day of the last infusion) and all major toxicities from the previous chemotherapy were resolved.
Tumor samples from the patients were tested post-randomization (but prior to database lock) using the Myriad myChoice® HRD Plus test in order to investigate efficacy in pre-defined biomarker subgroups. The Myriad myChoice® HRD Plus test is delivered from a single central laboratory in Salt Lake City, Utah; it detects and classifies the following biomarkers simultaneously in tumor tissue:
Myriad HRD status is based on the Myriad HRD score and tBRCAm status. A positive Myriad HRD status is determined either by presence of a tBRCA1/2 mutation or by an HRD score at or above a pre-specified cut-off in the absence of a BRCA1/2 mutation. The Myriad HRD cut-off of 42 detects 95% of BRCAm tumors and has been extensively investigated as a biomarker of PARP inhibitor benefit in ovarian cancer. The cut-off of 42 has now been FDA-approved for another PARP inhibitor for the treatment of relapsed ovarian cancer (Myriad myChoice® HRD test offered under the name myChoice® CDx). Reducing the cut-off to 33, enables detection of 99% of BRCAm tumors and retrospective analyses from 2 clinical studies raised the possibility that a 33 cut-off may provide greater precision in determining patients who may benefit from PARP inhibitor treatment.
The data cut-off (DCO) for the analysis of progression-free survival (PFS) PFS is time from randomization to first progression or death according to modified Response Evaluation Criteria in Solid Tumours (RECIST version 1.1). PFS took place when 474 progression events had occurred (58.8% maturity), approximately 45 months after the first patient was randomized. At this DCO, all efficacy, QoL and safety variables were analyzed, as appropriate, based on the amount of data available at that time.
PFS (based on investigator assessment) was the primary variable for the study and was analyzed based on the primary data cut-off using the investigator assessment population.

[2] = cited from earlier work
[3] = in vivo
Protocol: The study design was put into practice as the PAOLA-1/ENGOT-ov25 trial (NCT02477644), which was a randomised, double-blind, international phase III trial that enrolled patients with newly diagnosed, FIGO stage III-IV, high-grade serous or endometrioid ovarian cancer, fallopian tube or primary peritoneal cancer.
Patients were randomized in a 2:1 ratio to the treatments as specified below: • 1. Olaparib tablets orally 300 mg twice daily (bd) • 2. Placebo tablets orally 300 mg bd
The “overall study duration” phase was defined as from the first dose of olaparib or placebo until the last dose of olaparib or placebo+30 days (to account for the 30 day follow-up period).
Common Terminology Criteria for Adverse Events (CTCAE) (version 4.03) defines Grade 1 hypertension as having systolic BP 120-139 mmHg or diastolic BP 80-89 mm Hg; Grade 2 as having systolic BP 140-159 mmHg or diastolic BP 90-99 mm Hg, or recurrent or persistent (≥24 hrs) symptomatic increase by >20 mm Hg (diastolic) or to >140/90 mmHg; Grade 3 as having systolic BP ≥160 mmHg or diastolic BP ≥100 mmHg; Grade 4 hypertension as having life-threatening consequences, e.g., requiring urgent intervention; and Grade 5 hypertension as death.
An adverse event considered “serious” if, in the view of either the investigator or sponsor, it results in any of the following outcomes: death, a life-threatening adverse event, inpatient hospitalization or prolongation of existing hospitalization, or a persistent or significant incapacity or substantial disruption of the ability to conduct normal life functions.
Common Terminology Criteria for Adverse Events (CTCAE) (version 4.03) defines Grade 1 proteinuria as urine dipstick 1+ or <1.0 grams of protein per 24 hours; Grade 2 as urine dipstick 2+ or 1.0-3.4 grams of protein per 24 hours; Grade 3 as urine dipstick 4+ or ≥3.5 grams of protein per 24 hours.

[4] = overall population, KM estimate
[5] = overall population, KM estimate, listed as placebo-plus-bevacizumab
[6] = overall population, KM estimate, listed as placebo/bevacizumab

For O=C(c1cc(Cc2n[nH]c(=O)c3ccccc23)ccc1F)N1CCN(C(=O)C2CC2)CC1 [olaparib, 4-[(3-{[4-(cyclopropane-carbonyl)piperazine-1-yl]carbonyl}-4-fluorophenyl)methyl]-2H-phthalazin-1-one], which “progression free survival greater than for subjects receiving bevacizumab alone” value ([1]; overall subject population, olaparib in addition to bevacizumab) is on record?
Its value is “at least 4 months”.

What does the source list for “bevacizumab: recombinant humanized monoclonal IgG1 antibody, vascular endothelial growth factor inhibitor”?
overall incidence of proteinuria (all grades) ([2]; Study BO17705): 20%; patients in whom proteinuria did not resolve ([2]; after median follow-up of 11.2 months): 40%; proteinuria required discontinuation of bevacizumab ([2]; of the patients who developed proteinuria): 30%; incidence of CTCAE Grade ≥3 hypertension [3]: about 30%

For “Placebo/bevacizumab: Comparator arm: placebo tablets plus bevacizumab 15 mg/kg every 3 weeks (bevacizumab alone, without olaparib)”, which “Hypertension (serious adverse events)” value [3] is on record?
The value was 35 (13.1) Number (%) of patients.

And the “Hypertension CTCAE all Grades” value [3]?
The value was 160 (59.9) Number (%) of patients.

What about the “Proteinuria CTCAE Grade 3 or higher” value [3] of the same molecule?
Its value is 1 (0.4) Number (%) of patients.

What about the “Proteinuria CTCAE all Grades” value [3] of the same molecule?
The value was 40 (15.0) Number (%) of patients.

And the “Vascular disorders (serious adverse events)” value [3]?
The value was 35 (13.1) Number (%) of patients.

What about the “adverse drug reactions of proteinuria” value [3] of the same molecule?
Its value is 15.4%.

What about the “patients who reported adverse events (AEs)” value [3] of the same molecule?
Its value is 95.9%.

What about the “patients not classified as having had a second progression at the time of analysis (PFS2)” value ([1]; PFS2 data 39.1% mature) of the same molecule?
The value was 55.8%.

And the “median time until the first subsequent treatment” value ([1]; all patients)?
The value was 18.5 months.

And the “rate of freedom from second disease progression and death at 18 months” value ([1]; interim analysis of second progression-free survival, data maturity 39%, Kaplan-Meier estimate)?
Its value is 80%.

And the “patients for whom progression occurred on treatment” value ([1]; overall population)?
The value was 71.6%.

And the “patients not classified as having progressed at the time of analysis” value ([1]; overall population)?
The value was 27.9%.

What about the “n (%) of events (PFS)” value ([1]; overall population (FAS), investigator assessment, modified RECIST 1.1 or death, primary data cut-off) of the same molecule?
Its value is 194 (72.1) n (%).

And the “Progression free at 6 months” value [1, 4]?
The value was 85.3%.

And the “Progression free at 12 months” value [1, 4]?
The value was 65.6%.

What about the “Progression free at 18 months” value [1, 4] of the same molecule?
The value was 45.8%.

And the “Progression free at 24 months” value [1, 4]?
Its value is 27.7%.

And the “Progression free at 12 months” value [1, 5]?
Its value is 66%.

And the “Progression free at 18 months” value [1, 5]?
The value was 46%.

What about the “Progression free at 24 months” value [1, 5] of the same molecule?
Its value is 28%.

And the “Progression free at 12 months” value [1, 6]?
The value was 65.6%.

And the “Progression free at 24 months” value [1, 6]?
Its value is 27.7%.

And the “Median PFS (95% CI)” value ([1]; overall population, KM techniques)?
Its value is 16.6 months and 16.6 (15.4, 18.6) months.

And the “proportion of patients with PFS events” value ([1]; overall population, at data cut-off (474 events, 58.8% maturity))?
Its value is 72.1%.

And the median progression-free survival ([1]; patients with HRD-negative tumors (277 patients))?
The median progression-free survival was 16.2 months.

What about the median progression-free survival ([1]; patients with HRD-negative tumors or whose tumor HRD status was unknown (419 patients)) of the same molecule?
The median progression-free survival was 16.0 months.

And the median progression-free survival ([1]; patients with HRD-positive tumors that did not have BRCA mutations (FIG. 3D))?
Its median progression-free survival is 16.6 months.

What about the median progression-free survival ([1]; patients with a tumor BRCA mutation (FIG. 3A)) of the same molecule?
Its median progression-free survival is 21.7 months.

And the median progression-free survival ([1]; patients with tumors positive for HRD (score ≥42 on myChoice HRD Plus or tumor BRCA mutation) (FIG. 3C))?
Its median progression-free survival is 17.7 months.

What about the median progression-free survival ([1]; patients without a tumor BRCA mutation (FIG. 3B)) of the same molecule?
Its median progression-free survival is 16.0 months.
